Molecules are shown by their SMILES.

Data set [1] has as its system 4T1 murine breast cancer cells. Nature of the data set: In vitro luciferase expression (ONE-Glo+Tox). The format is cell-based. Particulars: 100 ng mRNA or 200 ng pDNA per well, 24 h, FIGS. 11 and 12. The procedure: (§1) 4T1 murine breast cancer cells were seeded into white 96-well plate with the density of 1×10^4 cells per well. After 24 h, cells were replaced by 180 μL fresh RPMI 1640 medium (10% FBS), and 20 μL mRNA-Luc or Luc-pDNA encapsulated CLLM Nanoparticle formulations were added with fixed 100 ng mRNA or 200 ng pDNA per well. Free mRNA-Luc or Luc-pDNA were used as the control. Cells were further incubated for 24 h and ONE-Glo+Tox kits were used for mRNA expression and cytotoxicity detection based on the standard protocol.

Data set [2] concerns 4T1 murine breast cancer cells. Nature of the data set: Cell viability / cytotoxicity detection (ONE-Glo+Tox). The format is cell-based. As to the method: as §1

With `CCCCCCCCCCCCCCOC(=O)CCN(CCSSCCN(C)C)CCC(=O)OCCCCCCCCCCCCCC` [CLLM-2], the “luciferase expression / delivery of mRNA and pDNA into cells” value in data set [1] is “can deliver mRNA and pDNA into cells”. Also, in data set [2] (100 ng mRNA in 200 uL medium per well, FIG. 11), the “tolerability of drug delivery (mRNA nanoparticle formulations)” value was “tolerated”. Moreover, the “tolerability of drug delivery (pDNA nanoparticle formulations)” value in data set [2] (200 ng pDNA in 200 uL medium per well, FIG. 12) is “tolerated”.
